{"source": "patent EP0940081A1", "about": "“Combinations of active agents and disinfectants, preservatives and antiseptics containing same” (Bode Chemie GmbH & Co., priority 1998, dated 1999)", "format_in_all_cases": "cell-based", "key": {"[1]": {"test_system": "Candida albicans ATCC 10231", "experiment": "Röhrchenverdünnungstest, fungistatic activity", "design": "key: +: Wachstum; -: kein Wachstum", "conditions": "72 h bei 37 °C", "description": "(§1) Methodik der Prüfung auf bakteriostatische und fungistatische Wirksamkeit im Röhrchenverdünnungtest: In sterile Reagenzröhrchen werden je 5 ml der Verdünnungen der Prüfsubstanzen in Wasser standardisierter Härte mit 5 ml doppelt konzentrierter Caseinpepton-Sojamehl-Pepton-Lösung (CSL) vermischt. Zur Bestimmung der bakteriostatischen Wirkung werden die Röhrchen durch Zugabe von 0,1 ml einer 1 : 10 mit CSL verdünnten, 24 h bei 37 °C bebrüteten CSL-Kultur beimpft. Zur Prüfung der fungistatischen Wirkung werden je 0,1 ml einer unverdünnten, 72 h bei 37 °C bebrüteten CSL-Kultur von Candida albicans verwendet. Die Auswertung erfolgt nach einer Bebrütung von 72 h bei 37 °C. Es erfolgte außerdem eine Nachbeimpfung von CSA-Platten durch Ausstreichen der ? 72 h-Testlösungen\", um das Wachstum der Testkeime zu beurteilen. Folgende Testkeime wurden eingesetzt: Sa: Staphylococcus aureus ATCC 6538 Ef: Enterococcus faecium ATCC 6057 Ec: Escherichia coli ATCC 11229 Pm: Proteus mirabilis ATCC 14153 Pa: Pseudomonas aeruginosa ATCC 15442 Ca: Candida albicans ATCC 10231"}, "[2]": {"test_system": "Candida albicans ATCC 10231", "experiment": "Quantitative suspension test, fungicidal activity (DGHM guideline)", "excerpt": "Methodik: Untersucht wurde ein Gemisch G 1 von 99,4 % MMPP und 0,6 % Decylthiouroniumbromid und ein Gemisch G 2 von 99,7 % MMPP und 0,3 % Decylthiouroniumbromid im Vergleich zu MMPP als Monowirkstoff entsprechend der Richtlinie für die Prüfung und Bewertung chemischer Desinfektionsverfahren der Deutschen Gesellschaft für Hygiene und Mikrobiologie. Testkeim: Candida albicans ATCC 10231 Enthemmer: Tween, Lecithin, Cystein (TLC)"}, "[3]": {"test_system": "Escherichia coli ATCC 11229", "experiment": "Röhrchenverdünnungstest, bacteriostatic activity", "design": "key: +: Wachstum; -: kein Wachstum", "conditions": "72 h bei 37 °C", "description": "as §1"}, "[4]": {"test_system": "Proteus mirabilis ATCC 14153", "experiment": "Röhrchenverdünnungstest, bacteriostatic activity", "design": "key: +: Wachstum; -: kein Wachstum", "conditions": "72 h bei 37 °C", "description": "as §1"}, "[5]": {"test_system": "Pseudomonas aeruginosa ATCC 15442", "experiment": "Röhrchenverdünnungstest, bacteriostatic activity", "design": "key: +: Wachstum; -: kein Wachstum", "conditions": "72 h bei 37 °C", "description": "as §1"}, "[6]": {"test_system": "Staphylococcus aureus ATCC 6538", "experiment": "Röhrchenverdünnungstest, bacteriostatic activity", "design": "key: +: Wachstum; -: kein Wachstum", "conditions": "72 h bei 37 °C", "description": "as §1"}, "[7]": {"test_system": "Enterococcus faecium ATCC 6057", "experiment": "Röhrchenverdünnungstest, bacteriostatic activity", "design": "key: +: Wachstum; -: kein Wachstum", "conditions": "72 h bei 37 °C", "description": "as §1"}, "[8]": {"test_system": "Staphylococcus aureus", "experiment": "Agar diffusion test, inhibition zone", "conditions": "no Decylthiouroniumbromid im Agar, 24 h", "description": "Methodik: Decylthiouroniumbromid wurde in abgestuften Konzentrationen im Agar inkorporiert. In Stanzlöcher wurde eine Natriumperboratlösung ohne und mit Aktivierung pipettiert. Die Platten wurden mit Staphylococcus aureus beimpft und 24 h bebrütet. Der entstehende Hemmhof wurde gemessen."}}, "note": "Read-outs that look alike come from different tables or passages of the source.", "data": [{"smiles": "O=C(O)c1ccccc1C(=O)OO", "note": "[MMPP, Magnesiummonoperphthalat]", "values": [{"measurement": "Wachstum des Testkeims (Minimale Hemmkonzentrationen)", "setting": "[1]; geprüfte Konzentration 0,85%", "value": "-"}, {"measurement": "Wachstum des Testkeims (Minimale Hemmkonzentrationen)", "setting": "[1]; geprüfte Konzentration 0,425%", "value": "+"}, {"measurement": "log reduction at 0.5 %", "setting": "[2]; ATCC10231, 5 min, 0,5 %, x = 5, read-out: log. Reduktionsfaktoren bei einer Einwirkungszeit von x min", "value": 0.55}, {"measurement": "log reduction at 0.6 %", "setting": "[2]; ATCC10231, 5 min, 0,6 %, x = 5, read-out: log. Reduktionsfaktoren bei einer Einwirkungszeit von x min", "value": 0.83}, {"measurement": "log reduction at 0.425 %", "setting": "[2]; ATCC10231, 5 min, 0,425 %, x = 5, read-out: log. Reduktionsfaktoren bei einer Einwirkungszeit von x min", "value": 1}, {"measurement": "log reduction at 0.5 %", "setting": "[2]; ATCC10231, 0.25 h, 0,5 %, x = 15, read-out: log. Reduktionsfaktoren bei einer Einwirkungszeit von x min", "value": 0.88}, {"measurement": "log reduction at 0.6 %", "setting": "[2]; ATCC10231, 0.25 h, 0,6 %, x = 15, read-out: log. Reduktionsfaktoren bei einer Einwirkungszeit von x min", "value": 0.91}, {"measurement": "log reduction at 0.425 %", "setting": "[2]; ATCC10231, 0.25 h, 0,425 %, x = 15, read-out: log. Reduktionsfaktoren bei einer Einwirkungszeit von x min", "value": 1.5}, {"measurement": "log reduction at 0.5 %", "setting": "[2]; ATCC10231, 0.5 h, 0,5 %, x = 30, read-out: log. Reduktionsfaktoren bei einer Einwirkungszeit von x min", "value": 1.28}, {"measurement": "log reduction at 0.6 %", "setting": "[2]; ATCC10231, 0.5 h, 0,6 %, x = 30, read-out: log. Reduktionsfaktoren bei einer Einwirkungszeit von x min", "value": 1.7}, {"measurement": "log reduction at 0.425 %", "setting": "[2]; ATCC10231, 0.5 h, 0,425 %, x = 30, read-out: log. Reduktionsfaktoren bei einer Einwirkungszeit von x min", "value": 3.6}, {"measurement": "Wachstum des Testkeims (Minimale Hemmkonzentrationen)", "setting": "[3]; geprüfte Konzentration 0,85%", "value": "-"}, {"measurement": "Wachstum des Testkeims (Minimale Hemmkonzentrationen)", "setting": "[3]; geprüfte Konzentration 0,425%", "value": "-"}, {"measurement": "Wachstum des Testkeims (Minimale Hemmkonzentrationen)", "setting": "[4]; geprüfte Konzentration 0,85%", "value": "-"}, {"measurement": "Wachstum des Testkeims (Minimale Hemmkonzentrationen)", "setting": "[4]; geprüfte Konzentration 0,425%", "value": "+"}, {"measurement": "Wachstum des Testkeims (Minimale Hemmkonzentrationen)", "setting": "[5]; geprüfte Konzentration 0,85%", "value": "-"}, {"measurement": "Wachstum des Testkeims (Minimale Hemmkonzentrationen)", "setting": "[5]; geprüfte Konzentration 0,425%", "value": "-"}, {"measurement": "Wachstum des Testkeims (Minimale Hemmkonzentrationen)", "setting": "[6]; geprüfte Konzentration 0,5%", "value": "+"}, {"measurement": "Wachstum des Testkeims (Minimale Hemmkonzentrationen)", "setting": "[6]; geprüfte Konzentration 0,6%", "value": "-"}, {"measurement": "Wachstum des Testkeims (Minimale Hemmkonzentrationen)", "setting": "[6]; geprüfte Konzentration 0,85%", "value": "-"}, {"measurement": "Wachstum des Testkeims (Minimale Hemmkonzentrationen)", "setting": "[6]; geprüfte Konzentration 0,425%", "value": "+"}, {"measurement": "Wachstum des Testkeims (Minimale Hemmkonzentrationen)", "setting": "[7]; geprüfte Konzentration 0,85%", "value": "-"}, {"measurement": "Wachstum des Testkeims (Minimale Hemmkonzentrationen)", "setting": "[7]; geprüfte Konzentration 0,425%", "value": "+"}]}, {"smiles": "O=BO[O-].[Na+]", "note": "[Perborat, Natriumperborat]", "values": [{"measurement": "Hemmhofgröße", "setting": "[8]; Perboratkonzentration im Stanzloch 0,5%, Aktivator ja", "value": 13, "unit": "mm"}, {"measurement": "Hemmhofgröße", "setting": "[8]; Perboratkonzentration im Stanzloch 0,5%, Aktivator nein", "value": 0, "unit": "mm"}, {"measurement": "Hemmhofgröße", "setting": "[8]; Perboratkonzentration im Stanzloch 0,25%, Aktivator ja", "value": 0, "unit": "mm"}, {"measurement": "Hemmhofgröße", "setting": "[8]; Perboratkonzentration im Stanzloch 0,25%, Aktivator nein", "value": 0, "unit": "mm"}, {"measurement": "Hemmhofgröße", "setting": "[8]; Perboratkonzentration im Stanzloch 1%, Aktivator ja", "value": 15, "unit": "mm"}, {"measurement": "Hemmhofgröße", "setting": "[8]; Perboratkonzentration im Stanzloch 1%, Aktivator nein", "value": 11, "unit": "mm"}, {"measurement": "Hemmhofgröße", "setting": "[8]; Perboratkonzentration im Stanzloch 2%, Aktivator ja", "value": 19, "unit": "mm"}, {"measurement": "Hemmhofgröße", "setting": "[8]; Perboratkonzentration im Stanzloch 2%, Aktivator nein", "value": 13, "unit": "mm"}]}]}
